According to PMC6207642, “Real Time Monitoring of NADPH Concentrations in Corynebacterium glutamicum and Escherichia coli via the Genetically Encoded Sensor mBFP” (Frontiers in Microbiology, 2018):

How the values were obtained:
mBFP [1] = target: T1, mBFP; assay: thermal shift (SYPRO Orange), concentration dependence; assay type: binding, uncultured bacterium; conditions: NADPH 0-10 mM; 40 to 70 °C in 0.5 °C steps
T1 construct: no tag mentioned; codon-optimized gene (amplicon 780 bp) used only in cells

mBFP [2] = test system: T1, mBFP; assay: photometric benzaldehyde reductase assay, Michaelis-Menten fit; assay type: biochemical, uncultured bacterium; conditions: phosphate buffer pH 8, 30 °C

Structure (SMILES) | Kd (mBFP [1]) [µM] | Km (mBFP [2]; 12.5 mM benzaldehyde, NADPH 0.5-180 μM) [µM] | Km (mBFP [2]; 200 μM NADPH, benzaldehyde 0.5-12.5 mM) [µM]
NC(=O)C1=CN([C@@H]2O[C@H](COP(=O)(O)OP(=O)(O)OC[C@H]3O[C@@H](n4cnc5c(N)ncnc54)[C@H](OP(=O)(O)O)[C@@H]3O)[C@@H](O)[C@H]2O)C=CC1 [NADPH] | 640 | 41 | 
O=Cc1ccccc1 [benzaldehyde] |  |  | 3100
